104 compounds from PubChem BioAssay AID652041 (Broad Institute, 2013) can be followed below.

“And” between values parts separate entries of the source, which are not always exact repeats. Identical values can stand only once.

The assay relates to P. falciparum HB3 in RBCs, SYBR Green DNA fluorescence. As to the kind of experiment: antimalarial activity against intraerythrocytic HB3 parasites – HB3 strain, red blood cells, SYBR Green, cherry-picked, dose response (AID 652041).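 Also: parasites exposed to compound for 72 hours before the DNA read.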
`Cc1[nH]n(-c2ccccc2)c(=O)c1/C=N/Nc1nncc(-c2ccccc2)n1`: the AC35 is 1.97 µM.

Consider `Clc1ccc(COC(Cn2ccnc2)c2ccc(Cl)cc2Cl)c(Cl)c1` (centres undefined), for which the AC35 was 1.57 µM and 1.95 µM.

In the case of `Oc1ccccc1-c1cc(-c2ccc3c(c2)OCCO3)n[nH]1`, the AC35 is 9.9 µM.

In the case of `CC1CCc2c(C(=O)Nc3ccccn3)csc2C1` (centres undefined), the AC35 was 35.6 µM.

For `O=C1c2ccccc2-n2c1nc1ccccc1c2=O`, the AC35 is 0.0617 µM.

On to `CC1CCN(c2nc(-c3ccncc3)nc3ccccc23)CC1`, for which the AC35 is 8.17 µM.

Turning to `Oc1ccc(N=Nc2ccc3c(c2)OCCO3)c2cccnc12`, the AC35 was 0.854 µM.

As for `CN(C)c1nc(-c2ccccn2)nnc1-c1ccccc1`, the AC35 is 2.54 µM.

Take `CCCCNc1c(-c2cccc(Sc3ccc(OC)cc3)c2)nc2ccccn12`: the AC35 is 8.77 µM.

For the compound `O=c1c2ccccc2nc(-c2ccc(-c3ccccc3)cc2)n1-c1ccncc1`, the AC35 was 18.3 µM.

Turning to `Oc1c(C(Nc2cccc(C(F)(F)F)c2)c2ccncc2)ccc2cccnc12` (centres undefined), the AC35 was 1.39 µM.

For `O=C(CN1CC[n+]2c(-c3cccs3)csc21)c1ccc(-c2ccccc2)cc1`, the AC35 is 1.46 µM.

On to `S=C(Nc1ccc(Oc2ccccc2)cc1)NC1CCCCCC1`, for which the AC35 is 4.03 µM.

As for `CCC(C)Sc1cccc(-c2nc3ccccn3c2NCc2ccccc2)c1` (centres undefined), the AC35 was 12.1 µM.

As for `Cc1ccc(C(=O)C(SC(C)(C)C)n2cncn2)cc1` (centres undefined), the AC35 was 38.7 µM.

For `O=c1c2ccccc2c(-c2ccc(O)cc2)nn1-c1cccc(C(F)(F)F)c1`, the AC35 was 3.52 µM.

As for `CCc1ccc(S(=O)(=O)N(C(=O)c2ccncc2)c2ccc(OC(=O)c3ccncc3)cc2)cc1`, the AC35 was 41.7 µM.

Take `CCCCNc1c(-c2ccc(-c3ccc(OC)cc3)c(OC)c2)nc2ccccn12`: the AC35 was 4.29 µM.

Consider `COC(=O)COC(=O)c1ccccc1NC(=O)c1ccccc1`, for which the AC35 is 25.8 µM.

As for `CN(Cc1ccc(Cl)s1)C(=O)CCl`, the AC35 is 5.21 µM.

In the case of `O=C(CSc1ccc(-c2ccccn2)nn1)NCc1ccc(F)cc1`, the AC35 is 37.5 µM.

As for `C=C1C(=O)C23CCC4C(C)(C(=O)OC)CCCC4(C)C2CCC1(O)C3` (centres undefined), the AC35 was 1.72 µM.

On to `CCC1=NN(C(=O)c2cccc(Br)c2)C(O)(c2ccc(Br)cc2)C1` (centres undefined), for which the AC35 was 12.3 µM.

With `CCCn1c(=O)c(C(=O)NCc2ccc(OC)c(OC)c2)c(O)c2ccccc21`, the AC35 was 21.8 µM.

On to `O=[N+]([O-])c1ccc(Sc2cccc[n+]2[O-])c2nonc12`, for which the AC35 was 1.41 µM.

As to `O=C(Nc1ccc(Br)c(C(F)(F)F)c1)c1ccccc1`, the AC35 is 10.7 µM.

Regarding `Cc1oc2c(c1C(=O)c1ccccc1)C(=O)C(=O)c1ccccc1-2`, the AC35 was 3.48 µM.

For `COc1ccc2[nH]c(=O)c(CN(Cc3cccnc3)C(=O)Nc3ccccc3)cc2c1`, the AC35 is 15.7 µM.

For `Cc1nn(CCC#N)c(N)c1C1(O)C(=O)Nc2c(Cl)cc(Cl)cc21` (centres undefined), the AC35 is 7.41 µM.

Consider `COc1cc(NS(=O)(=O)c2ccc(C)cc2)c2ncccc2c1`, for which the AC35 is 6.38 µM.

`Cc1ccc(O)c(C2=NNC(c3ccc(Cl)cc3)C2)c1` (centres undefined): the AC35 was 3.59 µM.

As to `CC1(C)C=Cc2c(ccc3c2OC[C@@H](c2ccc(O)cc2O)C3)O1`, the AC35 is 13.8 µM.

Regarding `CCCCCCn1c(=O)c(C(=O)Nc2ncccc2C)c(O)c2ccccc21`, the AC35 was 4.29 µM.

With `Nc1cc2c3ccccc3ccc2c2ccccc12`, the AC35 is 0.249 µM.

For `CC1(C)C2CCC1(C)C(OC(=O)c1ccc(O)cc1)C2` (centres undefined), the AC35 is 11.6 µM.

For the compound `Cc1cccc(NC(=S)NC(C)CCc2ccccc2)c1` (centres undefined), the AC35 was 12.7 µM.

Turning to `O=C(N/N=C/c1ccc[nH]1)c1sc2ccccc2c1Cl`, the AC35 is 15.8 µM.

Regarding `COc1cnc(-c2ccccn2)nc1N(C)c1ccccc1`, the AC35 is 3.46 µM.

As to `Oc1cccc2ccc(Nc3ccccn3)nc12`, the AC35 is 0.321 µM.

In the case of `[O-][n+]1cccc2c(Br)cc(Br)c(O)c21`, the AC35 was 2.77 µM.

As to `COc1ccc(-c2cc(C(=O)N3CCN(c4ccccc4F)CC3)c3ccccc3n2)c(OC)c1`, the AC35 was 6.74 µM.

Consider `Cc1cccc(Nc2nc(-c3ccc(O)cc3O)cs2)n1`, for which the AC35 is 18.6 µM.

Consider `NC(=Nc1nc(-c2ccccn2)cc2ccccc12)c1ccccn1`, for which the AC35 is 0.22 µM.

Consider `CN(C)c1ccc(C=c2c3cc(O)ccc3n3c2cc(-c2ccccc2)[n+]3C)cc1`, for which the AC35 is 0.247 µM.

As to `COc1cc2cnc(-c3ccccc3)c(C(=O)c3ccc(F)cc3)c2cc1OC`, the AC35 was 21.6 µM.

As for `CC1(C(=O)OCC(=O)Nc2ccc3ccccc3c2)CC1(Cl)Cl` (centres undefined), the AC35 was 31.2 µM.

Turning to `Oc1ccc(/C=N/Nc2ccc(C(F)(F)F)cn2)c(O)c1`, the AC35 was 6.46 µM.

For `O=C(NOC(=O)c1ccccc1)c1ccccc1`, the AC35 is 20.1 µM.

Regarding `Cc1ccc(-n2nnnc2SCC(=O)N2CCc3ccccc3C2)c(C)c1`, the AC35 is 28.7 µM.

With `O/N=C/c1ccccc1OCc1ccc(Cl)cc1`, the AC35 was 34.4 µM.

As to `O=C(Oc1c(Cl)cc(Cl)c2cccnc12)c1cccs1`, the AC35 is 19 µM.

For `CCN(CC)C(=O)CSc1ncnc2sc(-c3ccccc3)cc12`, the AC35 is 36.6 µM.

With `O=C(c1ccc(Cl)cc1)N1CCN(c2ccc(F)cc2)CC1`, the AC35 was 35.2 µM.

As for `CC(=O)Oc1ccc(OC(C)=O)c(SCCCCCCl)c1`, the AC35 is 2.56 µM.

For `Cc1ccc(NC2(c3nnnn3-c3c(C)cccc3C)CCCCC2)cc1`, the AC35 was 18 µM.

As to `CCOC(=O)c1ccc(NC(=S)N(Cc2cccnc2)Cc2ccco2)cc1`, the AC35 was 28.1 µM.

On to `Oc1c(I)cc(Cl)c2cccnc12`, for which the AC35 was 1.67 µM.

Consider `Clc1nc(-c2ccccn2)nc2scc(-c3ccccc3)c12`, for which the AC35 is 2.39 µM.

For the compound `O=C(NCc1ccncc1)c1ccccc1Nc1ccc(SC(F)F)cc1`, the AC35 was 21.5 µM.

With `CCCCC(CC)c1nnc(NC(=O)c2cccs2)s1` (centres undefined), the AC35 was 37.3 µM.

In the case of `CCN1C(=O)C(CC(=O)Nc2ccccc2Cl)N(NC(=O)c2cccc(F)c2)C1=S` (centres undefined), the AC35 was 21.8 µM.

In the case of `Cc1ccc2oc(-c3ccccc3)c(C(=O)O)c(=O)c2c1`, the AC35 was 20.3 µM.

For `Cc1ccc(NC(=O)CN(C)C(=O)c2cccnc2Nc2cccc(C(F)(F)F)c2)cc1`, the AC35 is 10.5 µM.

As for `O=S(=O)(c1ccc(Cl)cc1)N1CCC2(CC1)OCCN2S(=O)(=O)c1cccs1`, the AC35 is 20 µM.

For the compound `Cc1ccsc1/C=C/c1ccc2cccc(O)c2n1`, the AC35 was 11.9 µM.

As for `O=C(Nc1ccc(Cl)cc1C(=O)Nc1ccc(Br)cn1)c1ccco1`, the AC35 is 16.5 µM.

In the case of `C=CCNc1nc(-c2ccccn2)nnc1-c1ccccc1`, the AC35 is 2.22 µM.

`COc1ccc(Sc2nc(-c3ccccn3)ncc2OC)cc1`: the AC35 was 3.53 µM.

`NC(=O)N=Nc1c2[nH]c3ccccc3nc-2c2ccccc12`: the AC35 is 21.1 µM.

As to `c1ccc(CSc2ccc(-c3ccccn3)nn2)nc1`, the AC35 was 23 µM.

For `COC(=O)c1cccc2c1-c1ccccc1/C2=N/O`, the AC35 is 16.5 µM.

With `O=C1c2cc(F)ccc2-n2c1nc1ccccc1c2=O`, the AC35 was 0.0251 µM.

For the compound `O=S(=O)(Nc1ccccc1)c1ccc(Oc2ncc(C(F)(F)F)cc2Cl)cc1`, the AC35 was 25.1 µM.

`COc1ccccc1-c1sc2cc3c(cc2c1C#Cc1cncn1C)OCO3`: the AC35 was 2.96 µM.

Consider `O=C1Nc2c(Br)cccc2C1=O`, for which the AC35 is 30.5 µM.

As to `CCCCNC(=S)N/N=C1\CCCCc2ccccc21`, the AC35 is 16.8 µM.

Turning to `CCCCc1ccc(-n2c(Cc3cccs3)n[nH]c2=S)cc1`, the AC35 was 29.2 µM.

For `CC(C)(C)n1nc(Cc2cccc3ccccc23)c2c(N)ncnc21`, the AC35 is 23.6 µM.

Turning to `CNc1cc(CSC)nc(SCc2ccc(Cl)cc2Cl)n1`, the AC35 is 22.3 µM.

As to `COc1ccccc1C1CCN(C(=O)c2ccc(Cl)cc2)CC1`, the AC35 was 28.6 µM.

With `CC/C(=N/NC(=O)c1ccccc1O)c1c(C)[nH]n(-c2ccccc2)c1=O`, the AC35 is 28.1 µM.

`O=CC1=C(c2ccccc2)Oc2ccccc2O1`: the AC35 was 7.46 µM.

For `COc1ccc2oc(=O)c(-c3csc(Nc4cccc(O)c4)n3)cc2c1`, the AC35 was 12 µM.

For the compound `O=C(CCCSc1ccccc1)Nc1nc(-c2ccccn2)cs1`, the AC35 was 8.91 µM.

Regarding `O=[N+]([O-])c1cc(C(F)(F)F)ccc1NCCc1c[nH]c2ccc(O)cc12`, the AC35 was 24.6 µM.

Take `COc1cnc(-c2ccccn2)nc1Sc1ccc(C)cc1`: the AC35 is 3.64 µM.

As to `Cn1ccc(=Nc2ccc(NC(=O)c3ccc(N=c4ccn(C)c5ccc([N+](=O)[O-])cc45)cc3)cc2)cc1`, the AC35 is under 0.0235 µM.

Take `CCCS(=O)(=O)c1c(S(=O)(=O)CCC)c2c(C)cccn2c1C(=O)N/N=C/c1cc(O)cc(O)c1`: the AC35 was 10.5 µM.

For the compound `COc1ccc(N(C)S(=O)(=O)c2ccc(Cl)c(C(=O)NNC(=O)c3ccccc3O)c2)cc1`, the AC35 was 35.8 µM.

Consider `CN(C)c1nc(SCc2ccc(Cl)cc2)nc2c1CCCC2`, for which the AC35 was 33.5 µM.

In the case of `Cc1c(C2(O)CCCCC2)[nH]c2ccc(C(F)(F)F)cc12`, the AC35 was 17.3 µM.

With `Cc1ccc(NS(=O)(=O)c2ccc(N3CCN(c4ccc(O)cc4)CC3)c([N+](=O)[O-])c2)c(C)c1`, the AC35 is 10.4 µM.

In the case of `COc1ccc(N=N/C(=C\O)C(=O)c2cccs2)cc1`, the AC35 was 7.99 µM.

Take `CN(C)c1ccc(C=c2c3ccccc3n3c2c2c([n+]3C)CCCC2)cc1`: the AC35 is 0.228 µM.

For `CC(C)C(=O)NC(c1ccco1)c1ccc2cccnc2c1O` (centres undefined), the AC35 is 1.77 µM.

Turning to `OCCN(CCO)c1cc2c3ccccc3ccc2c2ccccc12`, the AC35 was 1.21 µM.

For the compound `O/N=C(\c1ccc(Cl)cc1Cl)c1ncc(C(F)(F)F)cc1Cl`, the AC35 was 11.6 µM.

Take `Cc1ccc(Nc2cc(C)nn2-c2nc(C)cc(C)n2)cc1`: the AC35 was 2.75 µM.

Consider `O=C(Nc1nnc(SCc2ccc(F)cc2)s1)c1ccccn1`, for which the AC35 was 1.93 µM.

Consider `CCOC(=O)N1C(=O)C2(CCCCC2)N(c2ccccc2Cl)C1=S`, for which the AC35 is 30.5 µM.

In the case of `O=C(NC(=S)N(CCc1ccccc1)CCc1ccccc1)c1ccco1`, the AC35 is 13.3 µM.

As to `COc1cnc(-c2ccccn2)nc1Oc1ccc(C(C)(C)C)cc1`, the AC35 is 4.82 µM.

As for `CCOC(=O)c1cc2c(=Cc3ccc(N(C)C)cc3)c3ccccc3n2[n+]1C`, the AC35 is 2.44 µM.

`O=P(Nc1cccnc1)(Oc1ccccc1Cl)Oc1ccccc1Cl`: the AC35 is 37.1 µM.
